Test results taken from patent US20240270740A1, “INHIBITORS OF CYCLIC GMP-AMP SYNTHASE AND USES THEREOF” (Ventus Therapeutics U.S., Inc., priority 2022, published 2024).

What was measured:
hcGAS [1] = biological target: T1, hcGAS (Homo sapiens, UniProt Q8N884); test: hcGAS Kinase-Glo assay (ATP depletion); assay type: biochemical; conditions: 40 nM hcGAS, 100 μM ATP, 100 μM GTP, 25 nM dsDNA, 3 h incubation
In short: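 Human cGAS activity measured indirectly as ATP depletion by Kinase-Glo luminescence, following the Lama et al. method with modified conditions. Output is IC50, binned into potency categories.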

hcGAS [2] = biological target: T1, hcGAS; test: hcGAS LCMS assay (direct measurement of cGAMP production); assay type: biochemical; conditions: 0.5 nM hcGAS, 100 μM ATP, 100 μM GTP, 25 nM dsDNA, 4 h incubation
In short: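 Direct LC/MS readout of cGAMP formed: 4-h enzyme–substrate incubation with compound, stopped by acetonitrile/water quench carrying isotope-labelled cGAMP (0.15 mM) as standard. Potency reported as IC50 ranges.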

T1 sequence (Q8N884 whole entry): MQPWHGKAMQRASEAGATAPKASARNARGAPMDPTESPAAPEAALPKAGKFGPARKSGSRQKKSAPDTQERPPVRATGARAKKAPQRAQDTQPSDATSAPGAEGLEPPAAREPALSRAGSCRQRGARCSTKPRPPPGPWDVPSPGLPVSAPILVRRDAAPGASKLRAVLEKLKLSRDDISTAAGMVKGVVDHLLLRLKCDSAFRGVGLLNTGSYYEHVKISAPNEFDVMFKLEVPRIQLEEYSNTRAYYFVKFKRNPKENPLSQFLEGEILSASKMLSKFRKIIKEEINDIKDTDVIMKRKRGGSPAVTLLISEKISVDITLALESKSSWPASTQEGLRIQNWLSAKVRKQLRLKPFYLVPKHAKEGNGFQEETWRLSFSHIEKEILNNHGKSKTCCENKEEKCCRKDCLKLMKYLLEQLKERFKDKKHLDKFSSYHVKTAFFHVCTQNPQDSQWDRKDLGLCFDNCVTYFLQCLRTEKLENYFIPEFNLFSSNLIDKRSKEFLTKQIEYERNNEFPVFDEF

Row | IC50 (hcGAS [1]) [nM] | IC50 (hcGAS [2]) [nM] | SMILES
1 | 10 to 30 | 5 to 20 | COc1c(N[C@H]2CCCC[C@H]2O)cc(C(=O)Nc2nnc(-n3nccc3C)s2)oc1=O (racemic) [Rac-189, 4-(((1S,2R)-2-hydroxycyclohexyl)amino)-3-methoxy-N-(5-(5-methyl-1H-pyrazol-1-yl)-1,3,4-thiadiazol-2-yl)-2-oxo-2H-pyran-6-carboxamide]
2 | < 10 | < 5 | COc1c(N[C@@H]2CCC[C@@H]2O)cc(C(=O)Nc2nnc(-c3sccc3Cl)s2)oc1=O (racemic) [Rac-7, N-(5-(3-chlorothiophen-2-yl)-1,3,4-thiadiazol-2-yl)-4-(((cis)-2-hydroxycyclopentyl)amino)-3-methoxy-2-oxo-2H-pyran-6-carboxamide]
3 | 30 to 100 | 5 to 20 | COc1c(NCCS(C)(=O)=O)cc(C(=O)Nc2nnc(-n3nccc3C)s2)oc1=O [Compound 183]
4 | 10 to 30 | 5 to 20 | COc1c(N2CC[C@H](S(C)(=O)=O)C2)cc(C(=O)Nc2nnc(-n3nccc3C)s2)oc1=O [Compound 60, (S)-3-methoxy-N-(5-(5-methyl-1H-pyrazol-1-yl)-1,3,4-thiadiazol-2-yl)-4-(3-(methylsulfonyl)pyrrolidin-1-yl)-2-oxo-2H-pyran-6-carboxamide]
5 | 10 to 30 | 5 to 20 | COc1c(N[C@H]2CCC[C@H]2OC)cc(C(=O)Nc2nnc(-n3nccc3C)s2)oc1=O (racemic) [Rac-14, 3-methoxy-4-(((1S,2R)-2-methoxycyclopentyl)amino)-N-(5-(5-methyl-1H-pyrazol-1-yl)-1,3,4-thiadiazol-2-yl)-2-oxo-2H-pyran-6-carboxamide]
6 | 10 to 30 | 5 to 20 | COc1c(NC(C)C)cc(C(=O)Nc2nnc(-c3c(Cl)ccn3C)s2)oc1=O [Compound 131, N-(5-(3-chloro-1-methyl-1H-pyrrol-2-yl)-1,3,4-thiadiazol-2-yl)-4-(isopropylamino)-3-methoxy-2-oxo-2H-pyran-6-carboxamide]
7 | 10 to 30 | 5 to 20 | COc1c(NCC(C)(C)OC)cc(C(=O)Nc2nnc(-n3nccc3C)s2)oc1=O [Compound 120, 3-methoxy-4-((2-methoxy-2-methylpropyl)amino)-N-(5-(5-methyl-1H-pyrazol-1-yl)-1,3,4-thiadiazol-2-yl)-2-oxo-2H-pyran-6-carboxamide]
8 | 10 to 30 | 5 to 20 | COc1c(NC23CC(OC)(C2)C3)cc(C(=O)Nc2nnc(-n3nccc3C)s2)oc1=O [Compound 111, 3-methoxy-4-((3-methoxybicyclo[1.1.1]pentan-1-yl)amino)-N-(5-(5-methyl-1H-pyrazol-1-yl)-1,3,4-thiadiazol-2-yl)-2-oxo-2H-pyran-6-carboxamide]
9 | 10 to 30 | 5 to 20 | COc1c(NCCC#N)cc(C(=O)Nc2nnc(-n3nccc3C)s2)oc1=O [Compound 176, 4-((2-cyanoethyl)amino)-3-methoxy-N-(5-(5-methyl-1H-pyrazol-1-yl)-1,3,4-thiadiazol-2-yl)-2-oxo-2H-pyran-6-carboxamide]
10 | 10 to 30 | 5 to 20 | COc1c(N2CC[C@@H](S(C)(=O)=O)C2)cc(C(=O)Nc2nnc(-n3nccc3C)s2)oc1=O [Compound 8, (R)-3-methoxy-N-(5-(5-methyl-1H-pyrazol-1-yl)-1,3,4-thiadiazol-2-yl)-4-(3-(methylsulfonyl)pyrrolidin-1-yl)-2-oxo-2H-pyran-6-carboxamide]
11 | 10 to 30 | 5 to 20 | COc1c(N[C@H]2CC[C@H](O)C2)cc(C(=O)Nc2nnc(-n3nccc3C)s2)oc1=O (racemic) [Rac-6, 4-(((1S,3S)-3-hydroxycyclopentyl)amino)-3-methoxy-N-(5-(5-methyl-1H-pyrazol-1-yl)-1,3,4-thiadiazol-2-yl)-2-oxo-2H-pyran-6-carboxamide]
12 | 30 to 100 | 20 to 60 | COC[C@H](C)Nc1cc(C(=O)Nc2nnc(-n3nccc3C)s2)oc(=O)c1OC [Compound 64, (S)-3-methoxy-4-((1-methoxypropan-2-yl)amino)-N-(5-(5-methyl-1H-pyrazol-1-yl)-1,3,4-thiadiazol-2-yl)-2-oxo-2H-pyran-6-carboxamide]
13 | 10 to 30 | 5 to 20 | COc1c(N2CC[C@H](OC)C2)cc(C(=O)Nc2nnc(-n3nccc3C)s2)oc1=O [Compound 57, (S)-3-methoxy-4-(3-methoxypyrrolidin-1-yl)-N-(5-(5-methyl-1H-pyrazol-1-yl)-1,3,4-thiadiazol-2-yl)-2-oxo-2H-pyran-6-carboxamide]
14 | 10 to 30 | 5 to 20 | COC[C@@H]1CCN(c2cc(C(=O)Nc3nnc(-n4nccc4C)s3)oc(=O)c2OC)C1 [Compound 1, (R)-3-methoxy-4-(3-(methoxymethyl)pyrrolidin-1-yl)-N-(5-(5-methyl-1H-pyrazol-1-yl)-1,3,4-thiadiazol-2-yl)-2-oxo-2H-pyran-6-carboxamide]
15 | 30 to 100 | 5 to 20 | COc1c(N2CCCC2)cc(C(=O)Nc2nnc(-n3nccc3C)s2)oc1=O [Compound 216, 3-methoxy-N-(5-(5-methyl-1H-pyrazol-1-yl)-1,3,4-thiadiazol-2-yl)-2-oxo-4-(pyrrolidin-1-yl)-2H-pyran-6-carboxamide]
16 | 10 to 30 | 5 to 20 | COc1c(NC23CC(C2)C3)cc(C(=O)Nc2nnc(-n3nccc3C)s2)oc1=O [Compound 182, 4-(bicyclo[1.1.1]pentan-1-ylamino)-3-methoxy-N-(5-(5-methyl-1H-pyrazol-1-yl)-1,3,4-thiadiazol-2-yl)-2-oxo-2H-pyran-6-carboxamide]
